The text below walks through data of patent US7132513B2, “Bifunctional chelating agent” (European Community, priority 2000, dated 2006).

Data set [1] in a line: complexation properties with ^225Ac. The conditions noted are these: compared with non-functionalised chelating agents EDTA, DTPA, DOTA, PEPA, HEHA, EDTMP. It counts as physicochemical. The method, then:
(§1) Different non-functionalised chelating agents (commercially available or readily synthesised in the laboratory) bearing aminocarboxylate groups (EDTA, DTPA, DOTA, PEPA, and HEHA) or aminophosphonate groups (EDTMP) were tested for their complexation properties with ^225Ac and ^213Bi. […] Polyaza polycarboxylic macrocycles are known to form thermodynamically stable complexes with large metal ions such as actinides and lanthanides.

Data set [2] in a line: complexation properties with ^213Bi. It counts as physicochemical. The conditions noted are these: non-functionalised chelating agents tested. The method, then:
as §1

As for `O=C(O)CN1CCN(CC(=O)O)CCN(CC(=O)O)CCN(CC(=O)O)CCN(CC(=O)O)CCN(CC(=O)O)CC1` [HEHA, 1,4,7,10,13,16-hexacarboxylmethyl-1,4,7,10,13,16-hexaazacyclooctadecane], in data set [1], the “^225Ac complexation” value is “best candidate”. Further, the “chelation of ^213Bi” value in data set [2] is listed as “good chelating agent”.
